Experimental data: patent US20250171495A1, “MUTLI-TARGETED SERINE PROTEASE INHIBITORS FOR TREATMENT OF CANCER AND VIRAL INFECTION” (Washington University, priority 2023, published 2025)
Where two headings read alike, the source gives them in different places.

What was measured:
Format in all cases: biochemical
HGFA = biological target: T1, HGFA (Homo sapiens, UniProt Q04756); assay: Fluorogenic kinetic enzyme inhibitor assay, HGFA; conditions: read-out: HGFA IC50
T1 construct: purchased R&D Systems 1514-SE-010
T1 sequence (Q04756 408-655 limits assumed): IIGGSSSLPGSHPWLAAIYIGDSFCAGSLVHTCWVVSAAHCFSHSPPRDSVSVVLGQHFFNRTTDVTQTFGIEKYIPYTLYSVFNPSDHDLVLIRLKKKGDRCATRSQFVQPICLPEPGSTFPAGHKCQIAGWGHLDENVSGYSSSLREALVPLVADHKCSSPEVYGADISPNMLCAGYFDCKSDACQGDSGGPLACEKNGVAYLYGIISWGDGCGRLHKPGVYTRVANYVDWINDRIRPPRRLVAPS
T1 sequence (Q04756 373-407 partner limits assumed): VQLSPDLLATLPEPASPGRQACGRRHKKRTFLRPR

hepsin = biological target: T2, hepsin (Homo sapiens, UniProt P05981); assay: Fluorogenic kinetic enzyme inhibitor assay, hepsin; conditions: read-out: Hepsin IC50
T2 construct: purchased R&D Systems 4776-SE-010

matriptase = biological target: T3, matriptase (Homo sapiens, UniProt Q9Y5Y6); assay: Fluorogenic kinetic enzyme inhibitor assay, matriptase
T3 construct: purchased R&D Systems 3946-SEB-010
T3 sequence (Q9Y5Y6 615-855 limits assumed): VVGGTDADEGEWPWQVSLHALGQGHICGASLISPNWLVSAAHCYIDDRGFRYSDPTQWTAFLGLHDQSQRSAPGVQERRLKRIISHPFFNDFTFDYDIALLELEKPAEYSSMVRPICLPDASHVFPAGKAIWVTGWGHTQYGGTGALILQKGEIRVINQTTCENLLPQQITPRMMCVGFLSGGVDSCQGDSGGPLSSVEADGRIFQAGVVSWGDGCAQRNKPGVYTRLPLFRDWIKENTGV

TMPRSS2 = TMPRSS2 (Homo sapiens, UniProt O15393); assay: Fluorogenic kinetic enzyme inhibitor assay, TMPRSS2; parameters: purchased Cusabio Technology CSB-YP023924HU; conditions: read-out: TMPRSS2 IC50
Chain of TMPRSS2 (O15393 106-492 limits assumed): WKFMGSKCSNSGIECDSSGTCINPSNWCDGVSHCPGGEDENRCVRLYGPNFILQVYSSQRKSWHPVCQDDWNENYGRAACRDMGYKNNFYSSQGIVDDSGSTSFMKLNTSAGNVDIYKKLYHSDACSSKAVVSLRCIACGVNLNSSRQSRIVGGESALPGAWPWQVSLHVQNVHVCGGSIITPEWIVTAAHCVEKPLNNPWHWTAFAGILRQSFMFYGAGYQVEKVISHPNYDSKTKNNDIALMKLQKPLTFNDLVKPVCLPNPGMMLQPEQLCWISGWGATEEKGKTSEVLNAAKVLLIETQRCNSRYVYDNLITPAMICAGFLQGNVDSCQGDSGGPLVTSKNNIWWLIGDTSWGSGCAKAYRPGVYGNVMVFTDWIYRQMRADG

T2 sequence (P05981 163-417 limits assumed): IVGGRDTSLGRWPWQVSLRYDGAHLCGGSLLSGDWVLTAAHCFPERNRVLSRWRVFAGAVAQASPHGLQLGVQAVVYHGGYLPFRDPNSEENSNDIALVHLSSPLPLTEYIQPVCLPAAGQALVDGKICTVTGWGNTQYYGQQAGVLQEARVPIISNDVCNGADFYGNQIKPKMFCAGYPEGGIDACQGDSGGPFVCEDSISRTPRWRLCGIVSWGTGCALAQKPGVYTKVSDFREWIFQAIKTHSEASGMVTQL
T2 sequence (P05981 1-162 partner limits assumed): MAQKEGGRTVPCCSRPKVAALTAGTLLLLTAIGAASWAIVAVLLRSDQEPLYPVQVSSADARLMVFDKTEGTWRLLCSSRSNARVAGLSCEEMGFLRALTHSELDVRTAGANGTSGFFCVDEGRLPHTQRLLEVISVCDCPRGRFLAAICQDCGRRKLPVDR

Row | Compound | IC50 (HGFA) | IC50 (hepsin; 30 min incubation, Boc-QAR-AMC at Km) | IC50 (hepsin) | IC50 (matriptase; read-out: Matriptase IC50) | IC50 (TMPRSS2) | IC50 (matriptase)
1 | CC(=O)N[C@H]1Cc2ccc(cc2)OCCCC[C@@H](C(=O)N[C@@H](CCCNC(=N)N)C(=O)c2nc3ccccc3s2)NC(=O)[C@@H](Cc2c[nH]c3ccccc23)NC1=O [8b] | 3.3 nM | 0.54 nM | – | – | – | –
2 | CC(=O)N[C@@H](Cc1cncn1COCc1ccccc1)C(=O)N[C@@H](CCC(C)C)C(=O)N[C@@H](CCCNC(=N)N)C(=O)c1nc2ccccc2s1 [JH1142-2, N-[(S)-1-[(1,3-benzothiazol-2-yl)carbonyl]-4-guanidinobutyl](S)-2-[(S)-2-acetylamino-3-{1-[(benzyloxy)methyl]-5-imidazolyl}propionylamino]-5-methylhexanamide] | 131 nM | – | 0.93 nM | 1.16 nM | – | –
3 | N=C(N)NCCC[C@H](NC(=O)[C@H](Cc1cccc2ccccc12)NC(=O)OCC1c2ccccc2-c2ccccc21)C(=O)c1nc2ccccc2s1 [MF1144, (S)-2-(1-naphthyl)-1-[N-(S)-1-[(1,3-benzothiazol-2-yl)carbonyl]-4-guanidinobutylcarbamoyl] ethyl (9H-fluoren-9-yl)methanecarbamate] | – | – | 1410 nM | > 20000 nM | > 20000 nM | –
4 | N=C(N)NCCC[C@H](NC(=O)[C@H](CCC1CCCCC1)NC(=O)OCC1c2ccccc2-c2ccccc21)C(=O)c1nc2ccccc2s1 [MF1149, (S)-3-cyclohexyl-1-[N-(S)-1-[(1,3-benzothiazol-2-yl)carbonyl]-4-guanidinobutylcarbamoyl] propyl (9H-fluoren-9-yl)methanecarbamate] | – | – | 2310 nM | 18 nM | > 20000 nM | –
5 | CCC[C@H](NC(=O)OCC1c2ccccc2-c2ccccc21)C(=O)N[C@@H](CCCNC(=N)N)C(=O)c1nc2ccccc2s1 [MF1150, (S)-1-[N-(S)-1-[(1,3-benzothiazol-2-yl)carbonyl]-4-guanidinobutylcarbamoyl] butyl (9H-fluoren-9-yl)methanecarbamate] | – | – | 29.5 nM | 5.44 nM | 19.3 nM | –
6 | N=C(N)NCCC[C@H](NC(=O)[C@H](CCc1ccccc1)NC(=O)OCC1c2ccccc2-c2ccccc21)C(=O)c1nc2ccccc2s1 [MF1152, (S)-1-[N-(S)-1-[(1,3-benzothiazol-2-yl)carbonyl]-4-guanidinobutylcarbamoyl]-3-phenylpropyl (9H-fluoren-9-yl)methanecarbamate] | – | – | > 20000 nM | 47.4 nM | 200 nM | –
7 | N=C(N)NCCC[C@H](NC(=O)[C@H](Cc1cn(Cc2ccccc2)cn1)NC(=O)OCC1c2ccccc2-c2ccccc21)C(=O)c1nc2ccccc2s1 [MF1158, (S)-2-(1-benzyl-4-imidazolyl)-1-[N-(S)-1-[(1,3-benzothiazol-2-yl)carbonyl]-4-guanidinobutylcarbamoyl] ethyl (9H-fluoren-9-yl)methanecarbamate] | – | – | > 20000 nM | 39.9 nM | 68.7 nM | –
8 | N=C(N)NCCC[C@H](NC(=O)[C@H](CCCCOCc1ccccc1)NC(=O)OCC1c2ccccc2-c2ccccc21)C(=O)c1nc2ccccc2s1 [MF1165, (S)-5-(benzyloxy)-1-[N-(S)-1-[(1,3-benzothiazol-2-yl)carbonyl]-4-guanidinobutylcarbamoyl] pentyl (9H-fluoren-9-yl)methanecarbamate] | – | – | 0.1 nM | 31.1 nM | 0.864 nM | –
9 | N=C(N)NCCC[C@H](NC(=O)[C@H](Cc1csc2ccccc12)NC(=O)OCc1ccccc1)C(=O)c1nc2ccccc2s1 [MF1168, (S)-2-(1-benzothiophen-3-yl)-1-[N-(S)-1-[(1,3-benzothiazol-2-yl)carbonyl]-4-guanidinobutylcarbamoyl] ethyl-phenylmethanecarbamate] | – | – | > 20000 nM | > 20000 nM | 0.264 nM | –
10 | N=C(N)NCCC[C@H](NC(=O)[C@H](CCC(=O)OCc1ccccc1)NC(=O)OCc1ccccc1)C(=O)c1nc2ccccc2s1 [MF1169, benzyl (S)-4-[benzyl(oxycarbonylamino)]-4-[N-(S)-1-[(1,3-benzothiazol-2-yl)carbonyl]-4-guanidinobutylcarbamoyl] butyrate] | – | – | > 20000 nM | 290 nM | 75 nM | –
11 | N=C(N)NCCC[C@H](NC(=O)[C@@H](NC(=O)OCc1ccccc1)c1cccs1)C(=O)c1nc2ccccc2s1 [MF1177, (R)-[N-(S)-1-[(1,3-benzothiazol-2-yl)carbonyl]-4-guanidinobutylcarbamoyl] (2-thienyl)methyl-phenylmethanecarbamate] | – | – | 6.07 nM | 37.6 nM | 0.211 nM | –
12 | N=C(N)NCCC[C@H](NC(=O)[C@H](Cc1cccs1)NC(=O)OCC1c2ccccc2-c2ccccc21)C(=O)c1nc2ccccc2s1 [MF1184, (S)-1-[N-(S)-1-[(1,3-benzothiazol-2-yl)carbonyl]-4-guanidinobutylcarbamoyl]-2-(2-thienyl)ethyl (9H-fluoren-9-yl)methanecarbamate] | – | – | 118 nM | 58.7 nM | 0.466 nM | –
13 | CC(=O)N[C@@H](CO)C(=O)NCc1cccc(CC(=O)N[C@@H](CC(C)C)C(=O)N[C@H](CCCNC(=N)N)C(=O)c2nc3ccccc3s2)c1 [MM1132-1, N-[(R)-1-[(1,3-benzothiazol-2-yl)carbonyl]-4-guanidinobutyl](S)-2-{[(m-{[(S)-2-acetylamino-3-hydroxypropionylamino]methyl}phenyl)methyl]carbonylamino}-4-methylvaleramide] | 3250 nM | – | 1.91 nM | 419 nM | – | –
14 | CCC(C)[C@H](NC(C)=O)C(=O)N[C@@H](CCSC)C(=O)N[C@@H](Cc1ccccc1)C(=O)N[C@H](CCCNC(=N)N)C(=O)c1nc2ccccc2s1 (stereo partly drawn) [MM4027-1, N-[(S)-3-(methylthio)-1-[N-(S)-1-[N-(R)-1-[(1,3-benzothiazol-2-yl)carbonyl]-4-guanidinobutylcarbamoyl]-2-phenylethylcarbamoyl]propyl](2S)-2-acetylamino-3-methylvaleramide] | 234 nM | – | – | – | 5.63 nM | –
15 | CCC(C)[C@H](NC(C)=O)C(=O)N[C@@H](CCSC)C(=O)N[C@@H](Cc1ccccc1)C(=O)N[C@@H](CCCNC(=N)N)C(=O)c1nc2ccccc2s1 (stereo partly drawn) [MM4027-2, N-[(S)-3-(methylthio)-1-[N-(S)-1-[N-(S)-1-[(1,3-benzothiazol-2-yl)carbonyl]-4-guanidinobutylcarbamoyl]-2-phenylethylcarbamoyl]propyl](2S)-2-acetylamino-3-methylvaleramide] | – | – | 1.31 nM | – | 2.96 nM | 0.51 nM
16 | CCC(C)[C@H](NC(C)=O)C(=O)N[C@H](Cc1cc2ccccc2[nH]1)C(=O)N[C@@H](Cc1ccccc1)C(=O)N[C@@H](CCCNC(=N)N)C(=O)c1nc2ccccc2s1 (stereo partly drawn) [MM4038, N-[(R)-2-(2-indolyl)-1-[N-(S)-1-[N-(S)-1-[(1,3-benzothiazol-2-yl)carbonyl]-4-guanidinobutylcarbamoyl]-2-phenylethylcarbamoy1]ethyl](2S)-2-acetylamino-3-methylvaleramide] | 66.2 nM | – | 12.2 nM | – | 0.04 nM | –
17 | N=C(N)NCCC[C@H](NC(=O)[C@H](Cc1ccccc1)NC(=O)[C@H](CCC(N)=O)NC(=O)OCc1ccccc1)C(=O)c1nc2ccccc2s1 [ZFH9141] | – | – | 1.25 nM | 1.02 nM | 0.418 nM | –
